Data as given in PMC7614683, “A small molecule PI3Kα activator for cardioprotection and neuroregeneration” (Nature, 2023).

Target: T1, PI3Kα G106V mutant (Homo sapiens, UniProt P42336, G106V)
T1 construct: Full-length human p110α was expressed either in a complex with full-length human p85α (for HTS, biochemistry and HDX-MS); 6xHis tag followed by TEV protease site (N); host or cells: Sf9, baculovirus
Assay: ADP-Glo catalytic activity, oncogenic mutant G106V
Type: biochemical
Procedure: Expression and purification of wild-type p110α (Cambridge MRC Laboratory for Molecular Biology (LMB-MRC) plasmid number OP831) in a complex with full-length p85α (LMB-MRC plasmid OP809) was performed as described. The oncogenic mutants G106V (LMB-MRC plasmid JB35), N345K (LMB-MRC plasmid OP661) and E545K (LMB-MRC plasmid OP663) were also purified using this protocol. Briefly, 10 litres of Spodoptera frugiperda (Sf9) cell culture at a density of 1.0 x 10^6 cells/ml were co-infected with a p85α-encoding virus [LMB-MRC plasmid OP809]. and a virus encoding p110α with an N-terminal 6xHis tag followed by a tobacco etch virus (TEV) protease site [LMB-MRC plasmid OP831]. After a 48 h infection at 27°C, cells were harvested and washed with PBS. […]
For characterisation of the effects of 1938 on in vitro PI3K enzymology, all reactions were performed at room temperature with 384 white-polystyrene plates (Corning #3574). […] Data was expressed as velocity (nmol of ADP generated/nmol of enzyme/sec). […] Luminescence was read using a PHERAstar® plate reader with software version 5.41, and analyses were performed using GraphPad Prism 8/9.

T1 sequence (P42336 whole entry G106V): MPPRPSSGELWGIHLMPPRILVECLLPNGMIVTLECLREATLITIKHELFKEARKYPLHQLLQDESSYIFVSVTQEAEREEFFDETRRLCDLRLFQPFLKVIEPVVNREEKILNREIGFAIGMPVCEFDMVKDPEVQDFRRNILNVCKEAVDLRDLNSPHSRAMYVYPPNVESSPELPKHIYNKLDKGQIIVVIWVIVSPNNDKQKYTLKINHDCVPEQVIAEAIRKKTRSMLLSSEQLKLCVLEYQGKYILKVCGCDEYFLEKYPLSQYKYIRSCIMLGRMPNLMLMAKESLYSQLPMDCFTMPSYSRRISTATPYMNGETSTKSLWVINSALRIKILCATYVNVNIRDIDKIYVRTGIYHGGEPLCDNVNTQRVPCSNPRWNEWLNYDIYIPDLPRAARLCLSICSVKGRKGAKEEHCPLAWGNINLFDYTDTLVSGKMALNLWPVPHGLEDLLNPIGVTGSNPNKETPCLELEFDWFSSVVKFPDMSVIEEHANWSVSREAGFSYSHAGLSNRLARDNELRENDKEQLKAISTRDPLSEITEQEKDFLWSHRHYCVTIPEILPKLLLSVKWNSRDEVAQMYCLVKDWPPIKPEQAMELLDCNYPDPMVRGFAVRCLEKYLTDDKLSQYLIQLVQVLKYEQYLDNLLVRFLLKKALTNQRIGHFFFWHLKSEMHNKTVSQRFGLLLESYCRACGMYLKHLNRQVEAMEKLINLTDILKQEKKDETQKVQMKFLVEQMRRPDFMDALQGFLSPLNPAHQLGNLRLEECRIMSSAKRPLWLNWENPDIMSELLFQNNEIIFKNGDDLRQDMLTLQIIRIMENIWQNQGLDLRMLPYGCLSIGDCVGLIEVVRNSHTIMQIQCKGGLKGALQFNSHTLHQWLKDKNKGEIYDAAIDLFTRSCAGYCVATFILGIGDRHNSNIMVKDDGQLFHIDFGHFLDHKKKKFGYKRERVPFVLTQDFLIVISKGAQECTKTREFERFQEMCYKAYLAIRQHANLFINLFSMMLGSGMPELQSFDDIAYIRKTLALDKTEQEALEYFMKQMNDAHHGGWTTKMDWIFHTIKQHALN
T1 sequence (P27986 whole entry partner): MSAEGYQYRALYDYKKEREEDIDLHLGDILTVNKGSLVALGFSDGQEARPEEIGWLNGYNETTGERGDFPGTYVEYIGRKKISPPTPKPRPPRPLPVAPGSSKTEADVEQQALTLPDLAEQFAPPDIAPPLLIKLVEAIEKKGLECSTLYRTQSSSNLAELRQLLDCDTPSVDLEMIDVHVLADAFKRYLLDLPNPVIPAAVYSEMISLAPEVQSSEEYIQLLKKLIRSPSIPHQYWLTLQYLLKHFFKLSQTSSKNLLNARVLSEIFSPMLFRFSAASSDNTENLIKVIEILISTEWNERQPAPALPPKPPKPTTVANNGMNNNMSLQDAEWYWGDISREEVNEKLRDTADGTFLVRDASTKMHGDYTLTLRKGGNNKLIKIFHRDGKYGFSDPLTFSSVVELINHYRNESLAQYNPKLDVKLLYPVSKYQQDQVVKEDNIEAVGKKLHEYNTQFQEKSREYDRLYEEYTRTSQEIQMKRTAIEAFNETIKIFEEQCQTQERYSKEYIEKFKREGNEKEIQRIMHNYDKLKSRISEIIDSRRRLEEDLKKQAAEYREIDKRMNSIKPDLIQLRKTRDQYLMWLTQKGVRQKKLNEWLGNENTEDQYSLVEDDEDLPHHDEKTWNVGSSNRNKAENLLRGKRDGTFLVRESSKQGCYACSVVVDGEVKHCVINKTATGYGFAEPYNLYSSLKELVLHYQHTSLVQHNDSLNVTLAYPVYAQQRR

`CCN1CCN(c2ccc(Nc3cc(Nc4cccc5c4N(C(C)=O)CC5)ccn3)cc2)CC1` [Compound 1938] was tested, and the “activation of G106V mutant” value was “levels comparable with stimulation with pY”.
